In patent US20240082118A1, “TOPICAL COMPOSITIONS AND METHODS OF PREPARING THE SAME” (LANDA LABS (2012) LTD., priority 2021, published 2024):

System: skin of pigs' ears
Assay: Ex vivo penetration of fluorescently marked nano-elements into pig ear skin
Assay type: in vitro ADME
Details: marker in water, or in water with the surfactants of Composition 2.21
Description: The distribution of nano-elements of the present compositions in various skin layers was tested ex vivo by applying onto the skin of pigs' ears nano-elements including a fluorescent dye (Nile red) allowing histological monitoring of their presence within the layers of the tissue onto which they were applied.
Tested composition (2) was prepared by adding 2 mg of Nile red fluorescent marker during the preparation of the CSSC premix, as described in Example 2.
The compositions were tested on two freshly harvested pig ears, collected on the same day, and kept fresh and cooled till use. The ears were washed with excess saline solution and wiped dry. They were then immobilized for the duration of the study by taping them onto a glass surface, their inner side facing down. Each ear was marked on its outer side with 6 circles having a diameter of about 1 cm.
25 microliters of each one of the samples were applied onto the skin near the center of the marked circle, each tested composition being applied in two or more separate circles for repeats. The ears with the applied test samples were then placed in an oven for an incubation time of 20 hours at a temperature of 32° C., to simulate the pigs' body temperature. […]
The tissue sections were evaluated by an expert for the presence and intensity of the marker using a fluorescence microscope at objective magnification of ×10. […]

For `CCN(CC)c1ccc2nc3c4ccccc4c(=O)cc-3oc2c1` [Nile red, 9-(diethylamino)-5H-benzo[a]phenoxazin-5-one], the “penetration of the fluorescent marker into skin without nano-elements” value was “No penetration”.
